The text below walks through data of US20240398725A1, “NANOPARTICLES FOR CANCER TREATMENT” (priority 2021, published 2024).

The structures appear in SMILES notation.

The subject of one experiment is SW872-DXR. Put plainly: MTS assay, doxorubicin IC50 in doxorubicin-resistant SW872-DXR. It counts as cell-based. As to conditions: Homo sapiens. From the text:
(§1) The dedifferentiated liposarcoma cell line (SW872) is one of the earliest STS model systems that has been extensively studied in preclinical investigations (Dodd 2010, Stratford 2012).
(§2) The SW872-DXR model was derived from the commercial cell line SW872. The resistance to doxorubicin was initiated in 2D cultures, by adding increased concentrations of doxorubicin every 2 weeks, starting from the IC50 concentrations of doxorubicin of the “parental” cell line SW872. The resistance of this cell line was verified by 3-(4,5-dimethylthiazol-2-yl)-5-(3-carboxymethoxyphenyl)-2-(4-sulfophenyl)-2H-tetrazolium (MTS) assay.
In general terms: Tetrazolium assays rely on reduction of a dye to a coloured formazan, in cell work by metabolically active cells.

In a further experiment the test system is SW872. Put plainly: MTS assay, doxorubicin IC50 in parental cell line SW872. It counts as cell-based. As to conditions: Homo sapiens.
From the text: as §1, §2

Turning to `COc1cccc2c1C(=O)c1c(O)c3c(c(O)c1C2=O)C[C@@](O)(C(=O)CO)C[C@@H]3O[C@H]1C[C@H](N)[C@H](O)[C@H](C)O1` [doxorubicin], the results for the IC50 in the experiment with SW872-DXR and in the experiment on SW872 were more than 1000 nM and approximately 200 nM, respectively.

A word on the IC50: it is the concentration that inhibits the measured activity by half.
